The record followed here is ChEMBL document CHEMBL4017472, “New modified 2-aminobenzimidazole nucleosides: Synthesis and evaluation of their activity against herpes simplex virus type 1” (Bioorg Med Chem Lett, 2017).

Data set [1] is described as follows: Cytotoxicity against African green monkey Vero E6 cells measured after 3 days by trypan blue assay. The following applies: chlorocebus sabaeus. It counts as cell-based, Vero C1008.
The test system of data set [2] is Human alphaherpesvirus 1. Put plainly: Antiviral activity against HSV1 L2 infected in African green monkey Vero E6 cells assessed as reduction in virus-induced cytopathic effect. Format: functional. The note with it: Human alphaherpesvirus 1, L2, Vero C1008.
Data set [3] in a line: Selectivity index, ratio of MCC for African green monkey Vero E6 cells to IC50 for HSV-1 L2/Rp-ACV/2 infected in African green monkey Vero E6 cells. Also noted: species or system Vero C1008.
Data set [4] has as its system Human alphaherpesvirus 1. Put plainly: Antiviral activity against acyclovir and cidofovir-resistant HSV-1 L2 infected in African green monkey Vero E6 cells assessed as viral reproduction at 52 uM measured after 48 hrs post infection by gentian violet staining based plaque reduction assay (reference value: 6.52 +/- 0.11 log10PFU/ml). It counts as functional, Vero C1008. A general note: Plaques are areas of infected cells; plaque reduction assays count them against a control.

The test system of data set [5] is Human alphaherpesvirus 1. Put plainly: Antiviral activity against HSV-1 L2/Rp-ACV/2 infected in African green monkey Vero E6 cells assessed as viral reproduction at 104 uM measured after 48 hrs post infection by gentian violet staining based plaque reduction assay (reference value: 6.05 +/- 0.1 log10PFU/ml). It counts as functional, Vero C1008.
For data set [6], the system named is Human alphaherpesvirus 1. Briefly: Antiviral activity against acyclovir and foscarnet-resistant HSV-1 L2 infected in African green monkey Vero E6 cells assessed as viral reproduction at 104 uM measured after 48 hrs post infection by gentian violet staining based plaque reduction assay (reference value: 5.92 +/- 0.11 log10PFU/ml). Format: functional, Vero C1008.

Data set [7] relates to Human alphaherpesvirus 1. Briefly: Antiviral activity against HSV-1 L2/Rp-ACV/2 infected in African green monkey Vero E6 cells assessed as viral reproduction at 207 uM measured after 48 hrs post infection by gentian violet staining based plaque reduction assay (reference value: 6.05 +/- 0.1 log10PFU/ml). Format: functional, Vero C1008.
Data set [8] has as its system Human alphaherpesvirus 1. Put plainly: Antiviral activity against acyclovir and cidofovir-resistant HSV-1 L2 infected in African green monkey Vero E6 cells assessed as viral reproduction at 207 uM measured after 48 hrs post infection by gentian violet staining based plaque reduction assay (reference value: 6.52 +/- 0.11 log10PFU/ml). Format: functional, Vero C1008.

Data set [9] concerns Human alphaherpesvirus 1. Briefly: Antiviral activity against HSV-1 L2 infected in African green monkey Vero E6 cells assessed as viral reproduction at 415 uM measured after 48 hrs post infection by gentian violet staining based plaque reduction assay (reference value: 6.91 +/- 0.05 log10PFU/ml). It counts as functional, Vero C1008.
Data set [10] relates to Human alphaherpesvirus 1. Briefly: Antiviral activity against acyclovir-resistant HSV-1 L2 infected in African green monkey Vero E6 cells assessed as viral reproduction at 415 uM measured after 48 hrs post infection by gentian violet staining based plaque reduction assay (reference value: 5.95 +/- 0.03 log10PFU/ml). It counts as functional, Vero C1008.
Data set [11] deals with Human alphaherpesvirus 1. Briefly: Antiviral activity against acyclovir and foscarnet-resistant HSV-1 L2 infected in African green monkey Vero E6 cells assessed as viral reproduction at 415 uM measured after 48 hrs post infection by gentian violet staining based plaque reduction assay (reference value: 5.92 +/- 0.11 log10PFU/ml). It counts as functional, Vero C1008.
Data set [12] concerns Human alphaherpesvirus 1. Put plainly: Antiviral activity against foscarnet-resistant HSV-1 F+ infected in African green monkey Vero E6 cells assessed as inhibition of viral reproduction measured after 48 hrs post infection by gentian violet staining based plaque reduction assay. Format: functional. The following applies: Vero C1008.

With `Nc1nc2cc(F)c(F)cc2n1[C@@H]1O[C@H](CO)[C@@H](O)[C@H]1O`, the MCC at 72 h in data set [1] was more than 3.32 mM. Further, in [2], the 50% inhibitory concentration (IC50) is 104 µM. Besides, the IC95 in data set [2] amounted to 830 µM. In addition, the “Selectivity Index” value in [3] is given as more than 32. Further, the Activity in data set [4] is 5.71 log10PFU/ml; in data set [5], 4.76 log10PFU/ml; in data set [6], 4.8 log10PFU/ml; in data set [7], 4.55 log10PFU/ml; in [8], 5.06 log10PFU/ml; in data set [9] it was 4.38 log10PFU/ml. Besides, the Activity was 3.45 log10PFU/ml in data set [10] and 4.02 log10PFU/ml in data set [11]. Besides, the inhibition result in data set [12] is “Dose-dependent effect”.

Usually IC50 stands for the concentration at which inhibition is half-maximal. For orientation: IC95 means the point of the concentration-response curve where the effect stands at 95%.
